In this experiment the target is μ-opioid receptor (Homo sapiens, UniProt P35372). Kind of experiment: biochemical. Details: purchased Perkin Elmer, Shelton, Conn; host or cells: HEK-293 or CHO. The settings on record: HEK-293 or CHO cells; for Emax: relative to DAMGO, read-out: GTPγS μ Emax; for EC50: read-out: GTPγS μ EC50.

Drawing on patent US10130615B2, “Benzomorphan analogs and the use thereof” (priority 2014, dated 2018), this text covers Emax and EC50 for eleven compounds.

Chain of μ-opioid receptor (P35372 whole entry, species assumed): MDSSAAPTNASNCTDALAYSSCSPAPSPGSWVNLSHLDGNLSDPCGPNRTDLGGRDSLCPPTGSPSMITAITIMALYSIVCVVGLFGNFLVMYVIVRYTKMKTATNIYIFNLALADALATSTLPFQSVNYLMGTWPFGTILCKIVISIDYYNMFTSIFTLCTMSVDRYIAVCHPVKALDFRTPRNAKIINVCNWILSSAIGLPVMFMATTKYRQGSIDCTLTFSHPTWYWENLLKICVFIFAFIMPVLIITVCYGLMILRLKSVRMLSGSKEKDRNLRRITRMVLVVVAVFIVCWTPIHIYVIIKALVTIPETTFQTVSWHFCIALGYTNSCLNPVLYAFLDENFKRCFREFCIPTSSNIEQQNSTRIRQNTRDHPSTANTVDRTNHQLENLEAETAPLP

As to `C[C@H]1[C@H]2Cc3ccc(O)cc3[C@]1(CCNCc1ccco1)CCN2CC1CC1` [Compound 17, (2R,6R,11R)-3-(cyclopropylmethyl)-6-(2-((furan-2-ylmethyl)amino)ethyl)-11-methyl-1,2,3,4,5,6-hexahydro-2,6-methanobenzo[d]azocin-8-ol], the Emax (usually the greatest response seen or fitted, relative to the assay's reference) was -0.88 ± 0.94%.
Take `COc1ccc2c(c1)[C@]1(CCNC(=O)[C@@H]3CCC(=O)N3)CCN(C)[C@H](C2)[C@@H]1C` [Compound 84, (S)-N-(2-((2R,6R,11R)-8-methoxy-3,11-dimethyl-2,3,4,5-tetrahydro-2,6-methano-benzo[d]azocin-6(1H)-yl)ethyl)-5-oxopyrrolidine-2-carboxamide]: the EC50 (usually the concentration giving half of the maximal effect) came to 12400 ± 540 nM and the Emax came out at 32.4 ± 0.76%.
As to `C[C@H]1[C@H]2Cc3ccc(O)cc3[C@]1(CCN1CCCC1)CCN2C` [Compound 20, (2R,6R,11R)-3,11-dimethyl-6-(2-(pyrrolidin-1-yl)ethyl)-1,2,3,4,5,6-hexahydro-2,6-methanobenzo[d]azocin-8-ol], the Emax stood at 108 ± 10.1%.
Consider `C[C@H]1[C@H]2Cc3ccc(O)cc3[C@]1(CCNC(=O)Nc1cccc(Oc3ccccc3)c1)CCN2C` [Compound 74, 1-(2-((2R,6R,11R)-8-hydroxy-3,11-dimethyl-2,3,4,5-tetrahydro-2,6-methanobenzo[d]azocin-6(1H)-yl)ethyl)-3-(3-phenoxyphenyl)urea], for which the EC50 worked out at 18.4 ± 2.09 nM and the Emax came out at 52.1 ± 1.88%.
In the case of `C[C@@H]1[C@@H]2Cc3ccc(O)cc3[C@@]1(CCN1CCN(C(c3ccc(F)cc3)c3ccc(F)cc3)CC1)CCN2C` [Compound 15, (2S,6S,11S)-6-(2-(4-(bis(4-fluoro-phenyl)methyl)piperazin-1-yl)ethyl)-3,11-dimethyl-1,2,3,4,5,6-hexahydro-2,6-methanobenzo[d]azocin-8-ol], the EC50 stood at 3460 ± 314 nM and the Emax came out at 97.7 ± 1.76%.
The matching figures for `C[C@H]1[C@H]2Cc3ccc(O)cc3[C@]1(CCNC(=O)[C@@H]1CCCCN1)CCN2C` [Compound 70, (S)-N-(2-((2R,6R,11R)-8-hydroxy-3,11-dimethyl-2,3,4,5-tetrahydro-2,6-methano-benzo[d]azocin-6(1H)-yl)ethyl)-piperidine-2-carboxamide]: 783 ± 208 nM and 27.7 ± 0.88%.
For `COc1ccc2c(c1)[C@@]1(CCN[C@H](C(=O)O)C(C)C)CCN(CC3CC3)[C@@H](C2)[C@H]1C` [Compound 41, (2-((2S,6S,11S)-3-(cyclopropylmethyl)-8-methoxy-11-methyl-2,3,4,5-tetrahydro-2,6-methanobenzo[d]azocin-6(1H)-yl)ethyl)-L-valine], the Emax stood at 0%.
Take `C[C@H]1[C@H]2Cc3ccc(O)cc3[C@]1(CCNCc1ccc(F)cc1)CCN2CC1CC1` [Compound 16, (2R,6R,11R)-3-(cyclopropylmethyl)-6-(2-((4-fluorobenzyl)amino)ethyl)-11-methyl-1,2,3,4,5,6-hexahydro-2,6-methanobenzo[d]azocin-8-ol]: the EC50 came out at 3.04 ± 0.26 nM and the Emax stood at 10.8 ± 1.25%.
In the case of `C[C@H]1[C@H]2Cc3ccc(O)cc3[C@]1(CCNC(=O)NS(=O)(=O)c1ccc(F)cc1)CCN2CC1CC1` [Compound 19, N-((2-((2R,6R,11R)-3-(cyclopropyl-methyl)-8-hydroxy-11-methyl-2,3,4,5-tetrahydro-2,6-methanobenzo[d]azocin-6(1H)-yl)ethyl)carbamoyl)-4-fluoro-benzenesulfonamide], the EC50 turned out to be 17.3 ± 6.99 nM and the Emax was determined as 10.1 ± 0.98%.
The corresponding values for `C[C@H]1[C@H]2Cc3ccc(O)cc3[C@]1(CCN(C)C)CCN2C` [Compound 22, (2R,6R,11R)-6-(2-(dimethyl-amino)-ethyl)-3,11-dimethyl-1,2,3,4,5,6-hexahydro-2,6-methanobenzo[d]azocin-8-ol] are 1070 ± 143 nM and 37.3 ± 1%.
For `COc1ccc2c(c1)[C@@]1(CCNCC(=O)O)CCN(CC3CC3)[C@@H](C2)[C@H]1C` [Compound 39, (2-((2S,6S,11S)-3-(cyclopropylmethyl)-8-methoxy-11-methyl-2,3,4,5-tetrahydro-2,6-methanobenzo[d]azocin-6(1H)-yl)ethyl)glycine], the Emax is 19.7 ± 3.18%.
